Article PMC4350872, “The Inhibitory Effect of Kakkonto, Japanese Traditional (Kampo) Medicine, on Brain Penetration of Oseltamivir Carboxylate in Mice with Reduced Blood-Brain Barrier Function” (Evidence-based Complementary and Alternative Medicine : eCAM, 2015)
Read-outs that look alike come from different tables or passages of the source.

How the values were obtained:
[1] = Plasma and cerebral concentrations of oseltamivir and OC after oral administration of OP; assay type: in vivo, C57BL/6 mice; details: OP 300 mg/kg p.o.; for AUC(0-t): C57BL/6, mouse, plasma, po, 300 mg/kg, read-out: AUC0–120 Plasma (converted); for mean brain-to-plasma ratio (BPR): mean AUCbrain / mean AUCplasma
Protocol: OP (300 mg/kg in 0.2 mL saline) was orally administered 4 h after the third injection of LPS. […] The brain tissue of mice was rapidly removed after the decapitation and rinsed in ice-cold PBS. Three to 9 mice were used at each sampling time point in each group.
Oseltamivir and OC levels in plasma and brain tissues were quantified by HPLC, as described in our previous study. Blood samples collected from the jugular vein were centrifuged to obtain plasma at 4°C (2,000 ×g, 15 min). Brain tissue samples were homogenized in 3.5 mL PBS/g tissue and centrifuged at 4°C (12,000 ×g, 10 min). Oseltamivir and OC were extracted from the resulting supernatant by solid-phase extraction (SPE) using Oasis MCX extraction cartridges (1 cc/30 mg, Waters, Milford, MA, USA) conditioned with 1 mL of methanol followed by 1 mL water. The supernatant sample (1 mL) was drawn through the cartridge and the cartridge was washed with 1 mL of 2% formic acid/water, followed by methanol and 0.005% ammonium hydroxide/methanol. The analytes were eluted with 3 mL of 5% ammonium hydroxide/methanol and evaporated to dryness under nitrogen at 40°C.
The HPLC system consisted of a pump (LC-10ADvp, Shimadzu Corp., Kyoto, Japan), degasser (DGU-12A, Shimadzu Corp.), column (Zorbax SB-CN 5 μm particle size, 4.6 × 250 mm, Agilent Technologies, CA, USA), column oven (CTO-10A, Shimadzu Corp.), and UV absorbance detector (SPD-10AV, Shimadzu Corp.). […] The column temperature was 50°C and the detector was operated at absorbance wavelength of 215 nm.

[2] = test system: organic anion transporter (OAT) 3; design: method as in PMID 19029202; details: cited from earlier work
[3] = test system: multidrug resistance protein (MRP) 4; design: method as in PMID 19029202; details: cited from earlier work
P-glycoprotein (P-gp) = test system: P-glycoprotein (P-gp); design: method as in PMID 19029202; details: cited from earlier work
[4] = design: method as in PMID 23881998; details: FDA Adverse Event Reporting System 1999 to 2011; cited from earlier work
[5] = Kak group (LPS + kakkonto 125 mg/kg p.o.)
[6] = Mao group (LPS + maoto 125 mg/kg p.o.)

SMILES	AUC(0-t) ([1]; Con group (LPS + saline p.o.)) [ng·h/mL]	AUC(0-t) [1, 5] [ng·h/mL]	AUC(0-t) [1, 6] [ng·h/mL]	AUC0–120 Brain ([1]; Con group (LPS + saline p.o.)) [min·μg/g brain]	mean brain-to-plasma ratio (BPR) ([1]; Con group) [μL/g brain]	AUC0–120 Brain [1, 5] [min·μg/g brain]	mean brain-to-plasma ratio (BPR) ([1]; Kak group) [μL/g brain]	AUC0–120 Brain [1, 6] [min·μg/g brain]	mean brain-to-plasma ratio (BPR) ([1]; Mao group) [μL/g brain]	substrate for OAT3 [2]	substrate for MRP4 [3]	substrate for efflux transporter P-gp (P-glycoprotein (P-gp))	odds ratio, abnormal behavior [4]	odds ratio, delirium [4]
CCC(CC)O[C@@H]1C=C(C(=O)O)C[C@H](N)[C@H]1NC(C)=O [OC, oseltamivir carboxylate]	12700	20000	14300	16.06	21.08	5.98	4.98	18.95	22.12	substrate	substrate			
CCOC(=O)C1=C[C@@H](OC(CC)CC)[C@H](NC(C)=O)[C@@H](N)C1 [Oseltamivir, oseltamivir]	32500	84400	62500	79.35	40.70	200.21	39.52	119.92	31.98			substrate		
CCOC(=O)C1=C[C@@H](OC(CC)CC)[C@H](NC(C)=O)[C@@H](N)C1 [Tamiflu, Oseltamivir phosphate]													29.35	13.50
